Source: patent US20170002313A1, “COMPOSITIONS AND METHODS OF OBTAINING AND USING ENDODERM AND HEPATOCYTE CELLS” (Genentech Inc., priority 2012, published 2017)

How the values were obtained:
[1] = test system: phosphorylated mTOR; experiment: Phospho imaging assay (immunofluorescence); assay type: cell-based, human; details: 60 min; treated versus untreated cells, fluorescence intensity
Procedure: (§1) The effect of each compound on the PI3K/AKT/MTOR pathway was evaluated in two ways: via a kinase profile (FIG. 23) and via phospho imaging assays (i.e., immunofluorescence assays using antibodies specific for the phosphorylated form of mTOR or AKT). In vitro kinase profiling provided percent inhibition for numerous targets within the PI3K cell signaling pathway, and cell-based imaging assays were performed to directly visualize the effect of each compound on phosphorylated Akt and phosphorylated mTOR in the cell system used for differentiation.
(§2) In column 2 of Table 6, the PI3K alpha_MTOR score reflects the ability of a compound to inhibit the phosphorylation of PI3K alpha and mTOR, where + indicates minimal inhibition, and +++ indicates maximal inhibition. In column 3 of Table 6, the score indicates the ratio of phosphorylated mTOR (as measured by fluorescence intensity) in cells treated with a compound and the phosphorylated mTOR (as measured by fluorescence intensity) in cells that were not treated with the compound. In column 4 of Table 6, the score indicates the ratio of phosphorylated AKT (as measured by fluorescence intensity) in cells treated with a compound and the phosphorylated AKT (as measured by fluorescence intensity) in cells that were not treated with the compound. A reported effect of AKT inhibitors is an increase in phosphorylated AKT.

[2] = molecular target: PI3K alpha (Homo sapiens, UniProt P42336); experiment: In vitro kinase profile, PI3K alpha_MTOR score; assay type: biochemical
PI3K alpha, sequence (P42336 whole entry, species assumed): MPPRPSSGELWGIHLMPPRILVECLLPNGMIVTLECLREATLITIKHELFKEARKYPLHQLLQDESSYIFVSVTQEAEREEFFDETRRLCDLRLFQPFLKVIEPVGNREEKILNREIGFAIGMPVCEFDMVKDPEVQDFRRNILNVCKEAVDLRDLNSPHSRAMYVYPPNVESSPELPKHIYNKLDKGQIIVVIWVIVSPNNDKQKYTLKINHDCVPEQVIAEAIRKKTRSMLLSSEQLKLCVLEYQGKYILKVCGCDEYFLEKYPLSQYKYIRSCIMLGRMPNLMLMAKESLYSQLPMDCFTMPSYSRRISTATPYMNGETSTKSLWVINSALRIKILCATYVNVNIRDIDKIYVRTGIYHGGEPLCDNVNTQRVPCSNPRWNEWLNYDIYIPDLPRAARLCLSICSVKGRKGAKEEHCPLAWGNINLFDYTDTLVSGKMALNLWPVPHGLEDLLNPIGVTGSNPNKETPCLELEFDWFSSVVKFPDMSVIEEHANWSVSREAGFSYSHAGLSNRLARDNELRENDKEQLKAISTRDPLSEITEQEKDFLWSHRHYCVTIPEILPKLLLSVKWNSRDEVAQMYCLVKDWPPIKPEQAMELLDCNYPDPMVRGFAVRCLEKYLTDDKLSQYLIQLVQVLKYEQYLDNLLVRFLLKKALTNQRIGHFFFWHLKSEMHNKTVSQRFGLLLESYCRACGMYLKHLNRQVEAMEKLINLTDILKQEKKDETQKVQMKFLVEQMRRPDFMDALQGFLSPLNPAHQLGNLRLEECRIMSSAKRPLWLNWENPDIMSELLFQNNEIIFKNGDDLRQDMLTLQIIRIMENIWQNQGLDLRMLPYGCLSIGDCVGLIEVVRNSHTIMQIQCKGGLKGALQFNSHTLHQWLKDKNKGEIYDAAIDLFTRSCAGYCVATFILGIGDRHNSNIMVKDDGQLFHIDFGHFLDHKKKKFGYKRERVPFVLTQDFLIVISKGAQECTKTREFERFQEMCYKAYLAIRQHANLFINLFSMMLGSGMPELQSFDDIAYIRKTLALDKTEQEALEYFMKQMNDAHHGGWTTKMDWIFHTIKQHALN
PI3K alpha, sequence (P27986 whole entry partner, species assumed): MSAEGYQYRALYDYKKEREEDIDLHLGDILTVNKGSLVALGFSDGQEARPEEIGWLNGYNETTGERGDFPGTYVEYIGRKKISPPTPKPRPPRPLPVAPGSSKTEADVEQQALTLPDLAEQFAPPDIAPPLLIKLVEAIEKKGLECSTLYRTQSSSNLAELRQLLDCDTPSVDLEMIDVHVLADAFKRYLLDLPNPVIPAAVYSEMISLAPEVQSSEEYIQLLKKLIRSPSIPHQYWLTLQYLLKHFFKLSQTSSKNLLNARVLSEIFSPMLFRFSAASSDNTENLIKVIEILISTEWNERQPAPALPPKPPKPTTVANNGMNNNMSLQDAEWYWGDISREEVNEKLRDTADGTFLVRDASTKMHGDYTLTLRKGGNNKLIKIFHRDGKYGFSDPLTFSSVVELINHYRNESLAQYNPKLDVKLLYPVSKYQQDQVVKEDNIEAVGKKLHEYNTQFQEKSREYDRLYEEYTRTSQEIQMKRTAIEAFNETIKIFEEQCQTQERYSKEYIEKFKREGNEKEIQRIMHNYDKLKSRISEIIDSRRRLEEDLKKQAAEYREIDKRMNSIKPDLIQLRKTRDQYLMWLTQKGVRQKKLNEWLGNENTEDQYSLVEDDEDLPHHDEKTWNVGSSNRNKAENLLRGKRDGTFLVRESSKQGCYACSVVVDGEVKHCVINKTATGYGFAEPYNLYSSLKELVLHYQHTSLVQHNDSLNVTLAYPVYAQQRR
Procedure: as §1, §2

[3] = molecular target: mTOR (Homo sapiens, UniProt P42345); experiment: In vitro kinase profile, PI3K alpha_MTOR score; assay type: biochemical
Procedure: as §1, §2

[4] = test system: phosphorylated AKT; experiment: Phospho imaging assay (immunofluorescence); assay type: cell-based, human; details: 60 min; treated versus untreated cells, fluorescence intensity
Procedure: as §1, §2

[5] = test system: human embryonic stem cells (hESC); experiment: Endoderm differentiation of hESC with small-molecule inhibitors, flow cytometry of endoderm markers; assay type: cell-based; details: Activin A + 750 nM inhibitor, no Wnt3a, 3-day treatment
Description: A variety of cell-type specific markers were used to monitor the differentiation of stem cells into endoderm cells in the flow cytometry, fluorescence imaging, and immunoassay experiments described below. To detect endoderm conversion, hESC-derived cell samples were stained for the expression of SOX17, FoxA2, and CXCR4 proteins. SOX17, FoxA2, and CXCR4 are proteins that are expressed by endoderm cells but not by stem cells. To detect stem cells, cell samples were stained for the expression of OCT4, a protein expressed by stem cells but not by endoderm cells.
Undifferentiated human embryonic stem cells (hES) were maintained at a density of 40,000 cells/cm^2 on qualified matrigel (BD, #354277) in TesR™2 medium ([…]™ Technologies #05860). Cultures were manually passaged twice a week. To prepare for endoderm differentiation, hESC cells were passaged into TesR™2 medium overnight. The following day, the TesR™2 medium was replaced with basal medium (DMEM/F12+Glutamax (Invitrogen, #10565) supplemented with B27 (Invitrogen, #17504-044)). No human embryos were destroyed in the process of obtaining stem cells for these methods. Furthermore, the plurality of stem cells is not obtained by the prior destruction of human embryos.
Unless otherwise noted, basal medium was supplemented with […] human Activin A (Peprotech, #120-14). When indicated, basal medium was also supplemented with an effective amount of, e.g., a growth factor such as […] human Wnt3a (R&D, #5036-WN-010), an isoform-specific P13K inhibitor or an mTOR inhibitor. […]
To prepare the cells for flow cytometry, hESC-derived cells grown under endoderm differentiation conditions were dissociated using Accutase (Innovative Cell technologies, #AT-104). Briefly, the cells were washed once in PBS, incubated with Accutase for 10 minutes at room temperature, pelleted, and washed in cold PBS. The Accutase-dissociated hESC-derived cell samples were stained with anti-CXC4 antibody, anti-SOX17 antibody, or anti-FoxA2 antibody. Additional cell samples were stained with isotype control antibodies (e.g., IgG1 or IgG2).
The cells that were to be stained with anti-CXCR4 antibody were washed once with cold DPBS and then directly stained with mouse anti-human CD184 (CXCR4)-IgG2-PE (BD, #555974) for one hour at 4° C. The cells that were to be stained with anti-SOX17 antibody or anti-FoxA2 antibody were first fixed for 25 minutes at 4° C. in fixation buffer (BD, #554655) and permeabilized for 30 minutes on ice in Perm Buffer III (BD, #554656). Anti-SOX17 staining was performed using a mouse anti-SOX17 IgG1-PE antibody (BD, #561591) at room temperature for 30 minutes. Anti-FoxA2 staining was performed using a mouse anti-human FoxA2 IgG1 (BD, #561589) under the same conditions. A control sample of cells were fixed as described above and stained with either an anti-IgG1-PE antibody (BD, #554680) at room temperature for 30 minutes or an anti-IgG2-PE antibody (BD, #55574) for one hour at 4° C.
The antibody-stained hESC-derived cells were then analyzed via flow cytometry using a BD LSRFortessa™ cell analyzer. […] Approximately 1×10^6 cells were analyzed per sample.

Structure (SMILES) | Avg(Avg (Ph MTOR_60m_%C # Spots)) [1] | PI3K alpha_MTOR score: PI3K alpha [2] | PI3K alpha_MTOR score: MTOR [3] | Max(Avg (Ph AKT_60min_Intensity)) [4] | endoderm conversion (SOX17, FoxA2, CXCR4 flow cytometry) [5]
CO[C@H]1C[C@@H]2CC[C@@H](C)[C@@](O)(O2)C(=O)C(=O)N2CCCC[C@H]2C(=O)O[C@H]([C@H](C)C[C@@H]2CC[C@@H](OC(=O)C(C)(CO)CO)[C@H](OC)C2)CC(=O)[C@H](C)/C=C(\C)[C@@H](O)[C@@H](OC)C(=O)[C@H](C)C[C@H](C)/C=C/C=C/C=C/1C [Temsirolimus] | 42.12 %C | – | – | – | –
COc1ncc(-c2ccc3nccc(-c4ccnnc4)c3c2)cc1NS(=O)(=O)c1ccc(F)cc1F [GSK2126458] | 15.55 %C | PI3K alpha+++_MTOR+++ | PI3K alpha+++_MTOR+++ | – | –
CCC(=O)N1CCN(c2ccc(-n3c(=O)ccc4cnc5ccc(-c6cnc7ccccc7c6)cc5c43)cc2C(F)(F)F)CC1 [Torin1] | 66.6 %C | – | – | 89.48 | –
COC[C@H]1OC(=O)c2coc3c2[C@@]1(C)C1=C(C3=O)[C@@H]2CCC(=O)[C@@]2(C)C[C@H]1OC(C)=O [Wortmannin] | 10.47 %C | – | – | – | –
Cc1c(CN2CCN(C(=O)[C@H](C)O)CC2)sc2c(N3CCOCC3)nc(-c3cnc(N)nc3)nc12 [GDC0980] | 9.99 %C | – | – | – | –
CNC(=O)Nc1ccc(-c2nc(N3CC4CCC(C3)O4)c3cnn(C4CCC5(CC4)OCCO5)c3n2)cc1 [WYE-125132] | 17.55 %C | – | +++ | – | –
Clc1ccc(C2(c3ccc(-c4cn[nH]c4)cc3)CCNCC2)cc1 [AT7867] | 73.59 %C | – | – | 122.15 | –
CO[C@H]1C[C@@H]2CC[C@@H](C)[C@@](O)(O2)C(=O)C(=O)N2CCCC[C@H]2C(=O)O[C@H]([C@H](C)C[C@@H]2CC[C@@H](O)[C@H](OC)C2)CC(=O)[C@H](C)/C=C(\C)[C@@H](O)[C@@H](OC)C(=O)[C@H](C)C[C@H](C)/C=C/C=C/C=C/1C [Rapamycin] | 57.77 %C | – | – | – | –
COC(=O)Nc1ccc(-c2nc(N3CCOCC3)c3cnn(C4CCN(Cc5cccnc5)CC4)c3n2)cc1 [WYE-687] | 12.81 %C | + | +++ | 86.65 | –
CCn1c(-c2nonc2N)nc2c(C#CC(C)(C)O)ncc(OC[C@H]3CCCNC3)c21 [GSK690693] | – | – | – | – | higher degree of endoderm conversion
COc1ccc2c(c1OC)N=C(NC(=O)c1cccnc1)N1CCN=C21 [PIK90] | 42.17 %C | +++ | – | 86.72 | –
Nc1cc(C(F)(F)F)c(-c2cc(N3CCOCC3)nc(N3CCOCC3)n2)cn1 [NVPBKM120] | 60.28 %C | PI3K alpha+++_MTOR+++ | PI3K alpha+++_MTOR+++ | – | –
Oc1cccc(-c2nc(N3CCOCC3)c3oc4ncccc4c3n2)c1 [PI103] | 5.59 %C | PI3K alpha+++_MTOR+++ | PI3K alpha+++_MTOR+++ | – | –
COc1ccc(-c2ccc3c(N4CCOC[C@@H]4C)nc(N4CCOC[C@@H]4C)nc3n2)cc1CO [AZD 8055] | 15.8 %C | – | +++ | – | –
Cn1c(=O)n(-c2ccc(C(C)(C)C#N)cc2)c2c3cc(-c4cnc5ccccc5c4)ccc3ncc21 [NVPBEZ235] | 43.44 %C | – | – | 88.3 | –
CN(C)C1CCN(C(=O)c2ccc(NC(=O)Nc3ccc(-c4nc(N5CCOCC5)nc(N5CCOCC5)n4)cc3)cc2)CC1 [PKI 587] | 77.99 %C | – | +++ | – | –
